Source: patent publication US6534523B1, “Hepatitis C inhibitor tri-peptides” (Boehringer Ingelheim (Canada) Ltd., priority 1998, dated 2003)

What follows are compounds tested against HCV NS3 protease (UniProt P26663). Settings: Table 3.
HCV NS3 protease, sequence (P26663 1027-1206, other chains not shown): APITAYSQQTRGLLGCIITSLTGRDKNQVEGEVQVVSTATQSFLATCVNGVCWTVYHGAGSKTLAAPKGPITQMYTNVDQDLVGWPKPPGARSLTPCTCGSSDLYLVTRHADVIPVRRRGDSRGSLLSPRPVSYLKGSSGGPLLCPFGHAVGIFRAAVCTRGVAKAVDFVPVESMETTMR
Assay type: biochemical, HCV genotype 1b
Parameters: rows headed: IC50 (μM); IC50 (μM)
Experimental: Recombinant HCV NS3 Protease/NS4A Cofactor Peptide Radiometric Assay
The enzyme was cloned, expressed and prepared according to the protocol described in Example 36. The enzyme was stored at −80° C., thawed on ice and diluted just prior to use in the assay buffer containing the NS4A cofactor peptide.
The substrate used for the NS3 protease/NS4A cofactor peptide radiometric assay, DDIVPC-SMSYTW, is cleaved between the cysteine and the serine residues by the enzyme. The sequence DDIVPC-SMSYTW corresponds to the NS5A/NS5B natural cleavage site in which the cysteine residue in P2 has been substituted for a proline. […] (molar ratio enzyme:cofactor 1:100) in the absence or presence of inhibitors. The separation of substrate from products is performed by adding avidin-coated agarose beads to the assay mixture followed by filtration. The amount of SMS[^125I-Y]TW product found in the filtrate allows for the calculation of the percentage of substrate conversion and of the percentage of inhibition.
The enzymatic reaction was initiated by the addition of the enzyme/NS4A peptide solution and the assay mixture was incubated for 40 min at 23° C. under gentle agitation. Ten (10) μL of 0.5N NaOH were added and 10 μL 1 M MES, pH 5.8 were added to quench the enzymatic reaction.
A non-linear curve fit with the Hill model was applied to the inhibition-concentration data, and the 50% effective concentration (IC50) was calculated by the use of SAS software (Statistical Software System; SAS Institute, Inc. Cary, N.C.). […]
The NS2-NS5B-3′ non coding region was cloned by RT-PCR into the pCR®3 vector (Invitrogen) using RNA extracted from the serum of an HCV genotype 1b infected individual (provided by Dr. Bernard Willems, Hôpital St-Luc, Montréal, Québec, Canada). The NS3-NS4A DNA region was then subcloned by PCR into the pFastBac™ HTa baculovirus expression vector (Gibco/BRL). The vector sequence includes a region encoding a 28-residue N-terminal sequence which contains a hexahistidine tag. The Bac-to-Bac™ baculovirus expression system (Gibco/BRL) was used to produce the recombinant baculovirus. The full length mature NS3 and NS4A heterodimer protein (His-NS3-NS4AFL) was expressed by infecting 10^6 Sf21 cells/mL with the recombinant baculovirus at a multiplicity of infection of 0.1-0.2 at 27° C. The infected culture was harvested 48 to 64 h later by centrifugation at 4° C. The cell pellet was homogenized in 50 mM NaPO4, pH 7.5, 40% glycerol (w/v), 2 mM β-mercaptoethanol, in presence of a cocktail of protease inhibitors. His-NS3-NS4AFL was then extracted from the cell lysate with 1.5% NP-40, 0.5% Triton X-100, 0.5M NaCl, and a DNase treatment. After ultracentrifugation, the soluble extract was diluted 4-fold and bound on a Pharmacia Hi-Trap Ni-chelating column. […] The His-NS3-NS4AFL was stored at −80° C. in 50 mM sodium phosphate, pH 7.5, 10% (w/v) glycerol, 0.5 M NaCl, 0.25 M imidazole, 0.1% NP-40. It was thawed on ice and diluted just prior to use. The protease activity of His-NS3-NS4AFL was assayed in 50 mM Tris-HCl, pH 8.0, 0.25 M sodium citrate, 0.01% (w/v) n-dodecyl-β-D-maltoside, 1 mM TCEP. Five (5) μM of the internally quenched substrate anthranilyl-DDIVPAbu[C(O)—O]-AMY(3-NO2)TW-OH in presence of various concentrations of inhibitor were incubated with 1.5 nM of His-NS3-NS4AFL for 45 min at 23° C. […] The reaction was terminated with the addition of 1M MES, pH 5.8. Fluorescence of the N-terminal product was monitored on a Perkin-Elmer LS-50B fluorometer equipped with a 96-well plate reader (excitation wavelength: 325 nm; emission wavelength: 423 nm).
The following tables list compounds representative of the invention.
`C=C[C@H]1C[C@]1(NC(=O)[C@@H]1C[C@@H](Oc2ccnc3ccccc23)CN1C(=O)[C@@H](NC(=O)OC(C)(C)C)C1CCCCC1)C(=O)O` [compound 306] gave an IC50 of 800 nM. `C=C[C@H]1C[C@]1(NC(=O)[C@@H]1C[C@@H](Oc2ccc3ccccc3c2)CN1C(=O)[C@@H](NC(=O)OC(C)(C)C)C1CCCCC1)C(=O)O` [compound 309] was tested, and the IC50 was 5000 nM.

Same assay, conditions: Table 4
`COc1ccc2c(OC3C[C@@H](C(=O)NC4(C(=O)O)CCC4)N(C(=O)[C@@H](NC(=O)OC(C)(C)C)C(C)(C)C)C3)cc(-c3ccccc3)nc2c1` (stereo partly shown) [compound 403] showed an IC50 of 132 nM.

Same assay, conditions: Table 5
For `C=CC1CC1(NC(=O)C1CC(Oc2ccnc3ccccc23)CN1C(=O)C(NC(=O)OC(C)(C)C)C(C)OCc1ccccc1)C(=O)O` (stereo not shown) [compound 506], the IC50 was 1300 nM. With `C=CC1CC1(NC(=O)C1CC(Oc2ccnc3ccccc23)CN1C(=O)C(NC(=O)OC(C)(C)C)C(C)CC)C(=O)O` (stereo not shown) [compound 509] the IC50 was 377 nM.

Same assay, conditions: Table 6
In the case of `C=CC1CC1(NC(=O)C1CC(Oc2cc(-c3ccccc3)nc3cc(N(C)C)ccc23)CN1C(=O)C(NC(=O)OC(C)(C)C)C(C)(C)C)C(=O)O` (stereo not shown) [compound 611], the IC50 is reported as 35 nM. `C=CC1CC1(NC(=O)C1CC(Oc2ccnc3cc(Cl)ccc23)CN1C(=O)C(NC(=O)OC(C)(C)C)C(C)C)C(=O)O` (stereo not shown) [compound 607] was tested, and the IC50 was 450 nM. `C=CC1CC1(NC(=O)C1CC(Oc2cc(N3CCOCC3)nc3ccccc23)CN1C(=O)C(NC(=O)OC(C)(C)C)C(C)(C)C)C(=O)O` (stereo not shown) [compound 612] was tested, and the IC50 was 278 nM. `C=CC1CC1(NC(=O)C1CC(Oc2cc(-c3csc(NC(C)C)n3)nc3cc(N(C)C)ccc23)CN1C(=O)C(NC(=O)OC(C)(C)C)C(C)(C)C)C(=O)O` (stereo not shown) [compound 629] showed an IC50 of 20 nM.

Same assay, conditions: Table 7
With `C=CC1C[C@]1(NC(=O)[C@@H]1C[C@@H](Oc2cc(C(=O)O)nc3cc(OC)ccc23)CN1C(=O)[C@@H](NC(=O)OC(C)(C)C)C(C)(C)C)C(=O)O` (stereo partly shown) [compound 710] the IC50 was 685 nM. `C=CC1CC1(NC(=O)C1CC(Oc2cc(-c3csc(NC(C)C)n3)nc3cc(OC)ccc23)CN1C(=O)C(NC(=O)OC(C)(C)C)C(C)(C)C)C(=O)O` (stereo not shown) [compound 723] gave an IC50 of 47 nM. `C=CC1CC1(NC(=O)C1CC(Oc2cc(-c3csc(-c4csc(C)n4)n3)nc3cc(OC)ccc23)CN1C(=O)C(NC(=O)OC(C)(C)C)C(C)(C)C)C(=O)O` (stereo not shown) [compound 732] showed an IC50 of 20 nM. Work on `C=CC1CC1(NC(=O)C1CC(Oc2cc(N3CCc4ccccc43)nc3cc(OC)ccc23)CN1C(=O)C(NC(=O)OC(C)(C)C)C(C)(C)C)C(=O)O` (stereo not shown) [compound 704] yielded an IC50 of 240 nM. In the case of `C=CC1C[C@]1(NC(=O)[C@@H]1C[C@@H](Oc2cc(C(C)C)nc3cc(OC)ccc23)CN1C(=O)[C@@H](NC(=O)OC(C)(C)C)C(C)(C)C)C(=O)O` (stereo partly shown) [compound 726], the IC50 is reported as 250 nM. `C=CC1CC1(NC(=O)C1CC(Oc2cc(-c3cnccn3)nc3cc(OC)ccc23)CN1C(=O)C(NC(=O)OC(C)(C)C)C(C)(C)C)C(=O)O` (stereo not shown) [compound 729] gave an IC50 of 200 nM. `C=CC1CC1(NC(=O)C1CC(Oc2cc(-c3cnn(C(C)(C)C)c3)nc3cc(OC)ccc23)CN1C(=O)C(NC(=O)OC(C)(C)C)C(C)(C)C)C(=O)O` (stereo not shown) [compound 720] gave an IC50 of 30 nM.

Same assay, conditions: Table 8
For `C=CC1CC1(NC(=O)C1CC(Oc2cc(-c3ccccc3)nc3cc(OC)ccc23)CN1C(=O)C(NC(=O)Nc1ccccc1)C(C)(C)C)C(=O)O` (stereo not shown) [compound 812], the IC50 was 13 nM. With `C=CC1CC1(NC(=O)C1CC(Oc2cc(-c3cccc(C)c3)nc3cc(OC)ccc23)CN1C(=O)C(NC(=O)OC(C)(C)C)C(C)(C)C)C(=O)O` (stereo not shown) [compound 842] the IC50 was 73 nM. Work on `C=CC1CC1(NC(=O)C1CC(Oc2cc(-c3ccccc3)nc3cc(OC)ccc23)CN1C(=O)C(NCc1ccccc1)C(C)C)C(=O)O` (stereo not shown) [compound 826] yielded an IC50 of 780 nM. `C=CC1CC1(NC(=O)C1CC(Oc2cc(-c3ccccc3)nc3cc(OC)ccc23)CN1C(=O)C(NC(=O)OC(C)(C)C)C(C)OCc1ccccc1)C(=O)O` (stereo not shown) [compound 853] gave an IC50 of 170 nM. In the case of `C=CC1CC1(NC(=O)C1CC(Oc2cc(-c3ccccc3)nc3cc(OC)ccc23)CN1C(=O)C(NC(=O)NCc1ccccc1)C(C)(C)C)C(=O)O` (stereo not shown) [compound 817], the IC50 is reported as 17 nM. With `C=CC1CC1(NC(=O)C1CC(Oc2cc(-c3ccccc3C)nc3cc(OC)ccc23)CN1C(=O)C(NC(=O)OC(C)(C)C)C(C)(C)C)C(=O)O` (stereo not shown) [compound 841] the IC50 was 240 nM. For `C=CC1CC1(NC(=O)C1CC(Oc2cc(-c3ccccc3)nc3cc(OC)ccc23)CN1C(=O)C(Nc1cccc(Oc2ccc(F)cc2)c1)C(C)C)C(=O)O` (stereo not shown) [compound 860], the IC50 was 240 nM. In the case of `C=CC1CC1(NC(=O)C1CC(Oc2cc(-c3ccccc3)nc3cc(OC)ccc23)CN1C(=O)C(Nc1cccc(CCO)c1)C(C)C)C(=O)O` (stereo not shown) [compound 855], the IC50 is reported as 75 nM. With `C=CC1CC1(NC(=O)C1CC(Oc2cc(-c3ccccc3)nc3cc(OC)ccc23)CN1C(=O)C(NC(=O)NC(C)C(N)=O)C(C)(C)C)C(=O)O` (stereo not shown) [compound 831] the IC50 was 15 nM. For `C=CC1CC1(NC(=O)C1CC(Oc2cc(-c3ccccc3)nc3cc(OC)ccc23)CN1C(=O)C(NC(=O)OC1CCCC1)C(C)(C)C)C(=O)O` (stereo not shown) [compound 869], the IC50 was 14 nM. `C=CC1CC1(NC(=O)C1CC(Oc2cc(-c3ccccc3)nc3cc(OC)ccc23)CN1C(=O)C(NC(=O)N(C)C(C)(C)C)C(C)(C)C)C(=O)O` (stereo not shown) [compound 858] showed an IC50 of 205 nM. With `C=CC1CC1(NC(=O)C1CC(Oc2cc(-c3ccccc3)nc3cc(OC)ccc23)CN1C(=O)C(NC(=O)NC(C)(C)C(N)=O)C(C)(C)C)C(=O)O` (stereo not shown) [compound 833] the IC50 was 15 nM. With `C=CC1CC1(NC(=O)C1CC(Oc2cc(-c3ccccc3)nc3cc(OC)ccc23)CN1C(=O)C(Nc1cccc(OC)c1)C(C)C)C(=O)O` (stereo not shown) [compound 821] the IC50 was 120 nM. In the case of `C=CC1CC1(NC(=O)C1CC(Oc2cc(-c3ccccc3)nc3cc(OC)ccc23)CN1C(=O)C(NC(=O)OC1CCCCC1)C(C)(C)C)C(=O)O` (stereo not shown) [compound 868], the IC50 is reported as 30 nM. Work on `C=CC1CC1(NC(=O)C1CC(Oc2cc(-c3ccccc3)nc3cc(OC)ccc23)CN1C(=O)C(NC(=O)OCC(C)(C)N)C(C)(C)C)C(=O)O` (stereo not shown) [compound 866] yielded an IC50 of 200 nM. `C=CC1CC1(NC(=O)C1CC(Oc2cc(-c3ccccc3)nc3cc(OC)ccc23)CN1C(=O)C(Nc1ccc(Cl)cc1)C(C)C)C(=O)O` (stereo not shown) [compound 837] showed an IC50 of 98 nM. `C=CC1CC1(NC(=O)C1CC(Oc2cc(-c3ccccc3)nc3cc(OC)ccc23)CN1C(=O)C(Nc1ccc(NC(C)=O)cc1)C(C)C)C(=O)O` (stereo not shown) [compound 845] was tested, and the IC50 was 180 nM.

Same assay, conditions: Table 9
Work on `C=CC1CC1(NC(=O)C1CC(Oc2cc(-c3ccccc3)nc3cc(OC)ccc23)CN1C(=O)C(NC(=O)c1ccccc1)C(C)(C)C)C(=O)O` (stereo not shown) [compound 908] yielded an IC50 of 72 nM. `C=CC1CC1(NC(=O)C1CC(Oc2cc(-c3ccccc3)nc3cc(OC)ccc23)CN1C(=O)C(NC(=O)c1cccc(O)c1C)C(C)(C)C)C(=O)O` (stereo not shown) [compound 911] showed an IC50 of 39 nM. Work on `C=CC1CC1(NC(=O)C1CC(Oc2cc(-c3ccccc3)nc3cc(OC)ccc23)CN1C(=O)C(NC(=O)c1ccc[nH]1)C(C)(C)C)C(=O)O` (stereo not shown) [compound 916] yielded an IC50 of 300 nM. `C=CC1CC1(NC(=O)C1CC(Oc2cc(-c3ccccc3)nc3cc(OC)ccc23)CN1C(=O)C(NS(=O)(=O)c1ccccc1)C(C)(C)C)C(=O)O` (stereo not shown) [compound 909] showed an IC50 of 36 nM. Work on `C=CC1CC1(NC(=O)C1CC(Oc2cc(-c3ccccc3)nc3cc(OC)ccc23)CN1C(=O)C(NC(=O)NC(CC)C(C)(C)C)C(C)(C)C)C(=O)O` (stereo not shown) [compound 906] yielded an IC50 of 14 nM. `C=CC1CC1(NC(=O)C1CC(Oc2cc(-c3ccccc3)nc3cc(OC)ccc23)CN1C(=O)C(NC(=O)Nc1nccs1)C(C)(C)C)C(=O)O` (stereo not shown) [compound 913] was tested, and the IC50 was 30 nM. For `C=CC1CC1(NC(=O)C1CC(Oc2cc(-c3ccccc3)nc3cc(OC)ccc23)CN1C(=O)C(NS(=O)(=O)c1sc(NC(C)=O)nc1C)C(C)(C)C)C(=O)O` (stereo not shown) [compound 914], the IC50 was 31 nM.
